ChEMBL document CHEMBL1140762, “Acridones circumvent P-glycoprotein-associated multidrug resistance (MDR) in cancer cells” (Bioorg Med Chem, 2008)

Experiments:
[1] = Dissociation constant, pKa of the compound; format: physicochemical
[2] = biological target: T1, ATP-dependent translocase ABCB1 (Homo sapiens, UniProt P08183); test: Inhibition of P-glycoprotein in MDR human KBChR-8-5 cells assessed as retention of [3H]VLB after 2 hrs; format: cell-based; design: concentration or dose not given beside the values
T1 sequence (P08183 whole entry): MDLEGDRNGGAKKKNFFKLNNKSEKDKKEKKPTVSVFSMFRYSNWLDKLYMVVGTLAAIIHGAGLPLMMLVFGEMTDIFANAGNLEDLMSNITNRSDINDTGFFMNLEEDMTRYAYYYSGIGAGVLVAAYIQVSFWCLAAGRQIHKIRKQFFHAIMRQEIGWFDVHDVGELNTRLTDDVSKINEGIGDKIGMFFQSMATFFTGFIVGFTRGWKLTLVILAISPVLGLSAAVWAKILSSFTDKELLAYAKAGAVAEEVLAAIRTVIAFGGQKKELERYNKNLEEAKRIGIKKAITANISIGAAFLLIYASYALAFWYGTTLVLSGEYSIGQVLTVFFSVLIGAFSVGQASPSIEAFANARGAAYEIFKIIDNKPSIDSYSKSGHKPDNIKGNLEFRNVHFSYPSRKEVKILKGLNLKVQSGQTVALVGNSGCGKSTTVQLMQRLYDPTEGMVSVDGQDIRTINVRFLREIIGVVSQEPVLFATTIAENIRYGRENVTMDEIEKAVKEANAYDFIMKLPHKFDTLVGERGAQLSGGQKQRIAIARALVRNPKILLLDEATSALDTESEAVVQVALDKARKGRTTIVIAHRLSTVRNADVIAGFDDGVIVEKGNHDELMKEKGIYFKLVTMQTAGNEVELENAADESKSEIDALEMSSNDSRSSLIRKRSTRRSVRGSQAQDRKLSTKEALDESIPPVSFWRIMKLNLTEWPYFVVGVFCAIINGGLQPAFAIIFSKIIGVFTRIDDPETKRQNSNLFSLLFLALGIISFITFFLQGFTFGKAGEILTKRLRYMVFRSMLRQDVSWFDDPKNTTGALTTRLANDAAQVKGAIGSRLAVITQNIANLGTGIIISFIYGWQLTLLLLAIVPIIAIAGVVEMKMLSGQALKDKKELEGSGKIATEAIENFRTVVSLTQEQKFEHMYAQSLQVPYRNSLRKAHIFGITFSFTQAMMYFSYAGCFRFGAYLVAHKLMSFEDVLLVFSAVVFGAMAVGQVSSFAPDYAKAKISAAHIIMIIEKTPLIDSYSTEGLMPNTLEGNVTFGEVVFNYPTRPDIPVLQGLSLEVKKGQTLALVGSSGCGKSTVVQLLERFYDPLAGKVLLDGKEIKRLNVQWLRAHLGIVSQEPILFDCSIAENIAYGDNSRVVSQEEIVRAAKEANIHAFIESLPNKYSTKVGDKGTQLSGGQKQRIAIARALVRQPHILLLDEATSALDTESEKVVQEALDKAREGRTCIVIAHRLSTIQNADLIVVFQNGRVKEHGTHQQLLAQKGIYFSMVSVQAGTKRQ

[3] = biological target: T1, ATP-dependent translocase ABCB1; test: Inhibition of P-glycoprotein in MDR human KBChR-8-5 cells assessed as uptake of vinblastin relative to control; format: cell-based; design: concentration or dose not given beside the values
[4] = system: MDR; test: Cytotoxicity against MDR human KBChR cells; format: functional, cell-based
[5] = system: KB-Vi; test: Displacement of [3H]azidopine from human P-glycoprotein in KB-Vi cells; format: cell-based; design: concentration or dose not given beside the values
[6] = Lipophilicity, log P of the compound; format: physicochemical; details: octanol/water

Compound: O=c1c2ccccc2[nH]c2ccc(Cl)cc12
- pKa [1]: 8.29
- Activity [2]: 49%
- Activity [3]: 715%
- IC10 [4]: 1.41 µM
- IC50 [4]: 18 µM
- Activity [5]: 85%
- logP [6]: 2.06

Compound: O=c1c2ccccc2n(CCCN2CCCCC2)c2ccc(Cl)cc12
- pKa [1]: 5.39
- Activity [2]: 54.5%
- Activity [3]: 927%
- IC10 [4]: 1.25 µM
- IC50 [4]: 15.5 µM
- Activity [5]: 50%
- logP [6]: 1.52

Compound: O=c1c2ccccc2n(CCCN2CCOCC2)c2ccc(Cl)cc12
- pKa [1]: 4.87
- Activity [2]: 62%
- Activity [3]: 1372%
- IC10 [4]: 1.15 µM
- IC50 [4]: 10.5 µM
- Activity [5]: 30%
- logP [6]: 1.64

Compound: O=c1c2ccccc2n(CCCCl)c2ccc(Cl)cc12
- pKa [1]: 8.65
- Activity [2]: 40%
- Activity [3]: 880%
- IC10 [4]: 1.35 µM
- IC50 [4]: 15 µM
- Activity [5]: 83%
- logP [6]: 1.38

Compound: O=c1c2ccccc2n(CCCCN2CCN(CCO)CC2)c2ccc(Cl)cc12
- pKa [1]: 5.26
- Activity [2]: 80.5%
- Activity [3]: 2010%
- IC10 [4]: 0.46 µM
- IC50 [4]: 4.5 µM
- Activity [5]: 10%
- logP [6]: 2.25

Compound: O=c1c2ccccc2n(CCCN2CCCC2)c2ccc(Cl)cc12
- pKa [1]: 5.21
- Activity [2]: 56%
- Activity [3]: 988%
- IC10 [4]: 0.9 µM
- IC50 [4]: 14 µM
- Activity [5]: 50%
- logP [6]: 1.55

Compound: O=c1c2ccccc2n(CCCCN(CCO)CCO)c2ccc(Cl)cc12
- pKa [1]: 4.8
- Activity [2]: 74%
- Activity [3]: 1219%
- IC10 [4]: 0.6 µM
- IC50 [4]: 5 µM
- Activity [5]: 20%
- logP [6]: 1.67

Compound: CN1CCN(CCCn2c3ccccc3c(=O)c3cc(Cl)ccc32)CC1
- pKa [1]: 5.28
- Activity [2]: 51%
- Activity [3]: 1010%
- IC10 [4]: 0.8 µM
- IC50 [4]: 9 µM
- Activity [5]: 45%
- logP [6]: 1.48

Compound: O=c1c2ccccc2n(CCCCCl)c2ccc(Cl)cc12
- pKa [1]: 8.85
- Activity [2]: 60.5%
- Activity [3]: 982%
- IC10 [4]: 1.25 µM
- IC50 [4]: 10.8 µM
- Activity [5]: 70%
- logP [6]: 1.68

Compound: CCN(CC)CCCCn1c2ccccc2c(=O)c2cc(Cl)ccc21
- pKa [1]: 5.45
- Activity [2]: 77.2%
- Activity [3]: 1356%
- IC10 [4]: 0.62 µM
- IC50 [4]: 9.1 µM
- Activity [5]: 20%
- logP [6]: 1.9

Compound: O=c1c2ccccc2n(CCCCN2CCCCC2)c2ccc(Cl)cc12
- pKa [1]: 5.36
- Activity [2]: 77%
- Activity [3]: 1855%
- IC10 [4]: 0.6 µM
- IC50 [4]: 5.2 µM
- Activity [5]: 15%
- logP [6]: 2.01

Compound: O=c1c2ccccc2n(CCCN(CCO)CCO)c2ccc(Cl)cc12
- pKa [1]: 4.8
- Activity [2]: 66%
- Activity [3]: 1017%
- IC10 [4]: 1.2 µM
- IC50 [4]: 8.7 µM
- Activity [5]: 40%
- logP [6]: 1.47

Compound: O=c1c2ccccc2n(CCCCN2CCOCC2)c2ccc(Cl)cc12
- pKa [1]: 4.91
- Activity [2]: 76%
- Activity [3]: 1690%
- IC10 [4]: 0.72 µM
- IC50 [4]: 6 µM
- Activity [5]: 15%
- logP [6]: 1.89

Compound: CN1CCN(CCCCn2c3ccccc3c(=O)c3cc(Cl)ccc32)CC1
- pKa [1]: 5.61
- Activity [2]: 75%
- Activity [3]: 1420%
- IC10 [4]: 0.8 µM
- IC50 [4]: 8 µM
- Activity [5]: 20%
- logP [6]: 1.95

Compound: O=c1c2ccccc2n(CCCN2CCN(CCO)CC2)c2ccc(Cl)cc12
- pKa [1]: 5.26
- Activity [2]: 56.5%
- Activity [3]: 1252%
- IC10 [4]: 0.74 µM
- IC50 [4]: 7.5 µM
- Activity [5]: 35%
- logP [6]: 1.76

Compound: O=c1c2ccccc2n(CCCCN2CCCC2)c2ccc(Cl)cc12
- pKa [1]: 5.28
- Activity [2]: 79%
- Activity [3]: 1010%
- IC10 [4]: 1.85 µM
- IC50 [4]: 12.5 µM
- Activity [5]: 30%
- logP [6]: 1.74

Compound: CCN(CC)CCCn1c2ccccc2c(=O)c2cc(Cl)ccc21
- pKa [1]: 5.37
- Activity [2]: 47%
- Activity [3]: 948%
- IC10 [4]: 1 µM
- IC50 [4]: 12.5 µM
- Activity [5]: 80%
- logP [6]: 1.54
